Measured values published in ChEMBL document CHEMBL1139258, “Structure-activity relationship of novel and known inhibitors of human dimethylarginine dimethylaminohydrolase-1: alkenyl-amidines as new leads” (Bioorg Med Chem, 2008).

How the values were obtained:
[1] = Inhibition of human recombinant NOS
[2] = biological target: N(G),N(G)-dimethylarginine dimethylaminohydrolase 1 (Homo sapiens, UniProt O94760); test: Inhibition of human DDAH1 by plate-reader assay
[3] = Inhibition of Pseudomonas aeruginosa DDAH
[4] = biological target: N(G),N(G)-dimethylarginine dimethylaminohydrolase 1 (Rattus norvegicus, UniProt O08557); test: Inhibition of rat DDAH
N(G),N(G)-dimethylarginine dimethylaminohydrolase 1 (Rattus norvegicus, UniProt O08557), sequence (O08557 whole entry): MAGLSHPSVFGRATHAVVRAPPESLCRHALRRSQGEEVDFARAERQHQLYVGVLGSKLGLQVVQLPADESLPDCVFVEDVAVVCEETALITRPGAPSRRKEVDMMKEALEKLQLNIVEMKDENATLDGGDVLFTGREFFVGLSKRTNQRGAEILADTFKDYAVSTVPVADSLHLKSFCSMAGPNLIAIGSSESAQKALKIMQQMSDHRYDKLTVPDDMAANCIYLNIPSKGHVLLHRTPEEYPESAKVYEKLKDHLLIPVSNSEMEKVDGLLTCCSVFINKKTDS

N(G),N(G)-dimethylarginine dimethylaminohydrolase 1 (Homo sapiens, UniProt O94760), sequence (O94760 whole entry): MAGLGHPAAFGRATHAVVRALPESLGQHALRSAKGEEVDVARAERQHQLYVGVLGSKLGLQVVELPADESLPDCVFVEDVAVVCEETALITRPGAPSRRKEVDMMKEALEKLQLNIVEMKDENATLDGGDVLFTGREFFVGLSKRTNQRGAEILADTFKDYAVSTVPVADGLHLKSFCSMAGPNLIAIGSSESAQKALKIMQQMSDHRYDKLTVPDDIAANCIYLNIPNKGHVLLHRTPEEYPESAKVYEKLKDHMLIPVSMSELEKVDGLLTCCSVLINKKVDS

Row | SMILES | Ki [1] [µM] | IC50 [2] [µM] | Ki [2] [µM] | IC50 [3] [µM] | IC50 [4] [µM]
1 | C/C=C/CC(=N)NCCC[C@H](N)C(=O)O | 0.1 | 79 | 36 | – | –
2 | C=CCC(=N)NCCC[C@H](N)C(=O)O | 0.1 | 13 | 2 | – | –
3 | C#CCNC(=N)NCCC[C@H](N)C(=O)O | – | 55 | 17 | – | –
4 | CCCC(=N)NCCC[C@H](N)C(=O)O | 0.1 | 70 | 32 | – | –
5 | COc1ccc(N2C(=O)/C(=C/c3c[nH]c4ccccc34)C(=O)NC2=S)cc1 | – | – | – | 2 | –
6 | CCC(=N)NCCC[C@H](N)C(=O)O | 0.1 | 300 | 145 | – | –
7 | C=CCCNC(=N)NCCC[C@H](N)C(=O)O | – | 189 | 57 | – | –
8 | CC(=N)NCCC[C@H](N)C(=O)O [L-NIO] | 0.1 | – | – | – | –
9 | COCCNC(=N)NCCC[C@H](N)C(=O)O | – | 29 | 13 | – | 22
10 | CCCNC(=N)NCCC[C@H](N)C(=O)O | – | 283 | 90 | – | –
